US11046716B2, “Beta-lactamase inhibitors” (priority 2015, dated 2021)

Key:
[1] = test system: K. pneumoniae expressing the class A carbapenemase KPC-2 and the class B carbapenemase VIM-4; experiment: Broth microdilution MIC assay with meropenem, K. pneumoniae KPC-2 and VIM-4; assay type: cell-based; conditions: Fixed Mero (meropenem) 4 μg/mL; K. p. A-1797 KPC-2 VIM-4
In short: (§1)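 Test compounds in 2-fold dilutions (16 to 0.125 μg/mL final) in CAMHB were combined with a β-lactam at a static 4 μg/ml final. Plates were inoculated per CLSI broth microdilution with the β-lactamase-producing strain (pre-grown 3-5 h) and incubated 16-20 h at 37° C. MIC of test compound was read visually.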

VIM-2 = target: T1, VIM-2 (Escherichia coli, UniProt Q5U7L7); experiment: β-lactamase enzyme inhibition assay, VIM-2 (nitrocefin substrate); assay type: biochemical; conditions: Class B; nitrocefin substrate, 486 nm; read-out: VIM-2
T1 construct: made in house; host or cells: E. coli BL21(DE3)
In short: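 Purified VIM-2 preincubated with inhibitor for 15 min at 37° C, then nitrocefin (100 μM final) added and absorbance at 486 nm followed for 10 min. Maximum hydrolysis rates compared with inhibitor-free controls; IC50 fitted from percent inhibition across inhibitor concentrations.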

[2] = test system: P. aeruginosa expressing the Class B carbapenemase VIM-2; experiment: Broth microdilution MIC assay with meropenem, P. aeruginosa VIM-2; assay type: cell-based; conditions: Fixed Mero (meropenem) 4 μg/mL; P. aerug. 2775 VIM-2
In short: as §1

[3] = test system: K. pneumoniae producing the Class D carbapenemase OXA-48; experiment: Broth microdilution MIC assay with meropenem, K. pneumoniae OXA-48; assay type: cell-based; conditions: Fixed Mero (meropenem) 4 μg/mL; K. p. 11978 OXA-48
In short: as §1

OXA-48 = OXA-48 (UniProt Q6XEC0); experiment: β-lactamase enzyme inhibition assay, Class D oxacillinase; assay type: biochemical; conditions: read-out: OXA-48
[4] = test system: E. cloacae expressing the Class C P99; experiment: Broth microdilution MIC assay with ceftazidime, E. cloacae P99; assay type: cell-based; conditions: Fixed CAZ (ceftazidime) 4 μg/mL; E. cl. 144200 p99 AmpC
In short: as §1

[5] = test system: K. pneumoniae expressing the Class A carbapenemase KPC-2; experiment: Broth microdilution MIC assay with meropenem, K. pneumoniae KPC-2; assay type: cell-based; conditions: Fixed Mero (meropenem) 4 μg/mL; K. p. 156319 KPC-3
In short: as §1

[6] = test system: E. coli expressing the Class A Extended Spectrum Beta-Lactamase (ESBL) CTX-M-15; experiment: Broth microdilution MIC assay with ceftazidime, E. coli CTX-M-15; assay type: cell-based; conditions: Fixed CAZ (ceftazidime) 4 μg/mL; E. coli ESBL4 CTX-M-15
In short: as §1

KPC-2 = target: T2, KPC-2 (Klebsiella pneumoniae, UniProt Q9F663); experiment: β-lactamase enzyme inhibition assay, KPC-2 (imipenem substrate); assay type: biochemical; conditions: Class A; imipenem substrate, 300 nm; read-out: KPC-2
T2 construct: made in house; host or cells: E. coli BL21(DE3)
In short: (§2)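 Native untagged β-lactamases were expressed in E. coli BL21(DE3), then purified by cation exchange and gel filtration. Enzyme was preincubated with inhibitor for 15 min at 37 °C before substrate was added. Imipenem (A300) served KPC-2 and cefotaxime (A260) served SHV-5. IC50 was taken from initial hydrolysis rates relative to no-inhibitor controls.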

AmpC = target: T3, AmpC (Enterobacter cloacae, UniProt P05364); experiment: β-lactamase enzyme inhibition assay, p99 AmpC (nitrocefin substrate); assay type: biochemical
T3 construct: made in house; host or cells: E. coli BL21(DE3)
In short: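 Native untagged β-lactamases were expressed in E. coli BL21(DE3), then purified by cation exchange and gel filtration. Enzyme was preincubated with inhibitor for 15 min at 37 °C before substrate was added. IC50 was taken from initial hydrolysis rates relative to no-inhibitor controls.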

SHV-5 = target: T4, SHV-5 (Klebsiella pneumoniae, UniProt P0A3M1); experiment: β-lactamase enzyme inhibition assay, SHV-5 (cefotaxime substrate); assay type: biochemical
T4 construct: made in house; host or cells: E. coli BL21(DE3)
In short: as §2

T4 sequence (P0A3M1 22-286): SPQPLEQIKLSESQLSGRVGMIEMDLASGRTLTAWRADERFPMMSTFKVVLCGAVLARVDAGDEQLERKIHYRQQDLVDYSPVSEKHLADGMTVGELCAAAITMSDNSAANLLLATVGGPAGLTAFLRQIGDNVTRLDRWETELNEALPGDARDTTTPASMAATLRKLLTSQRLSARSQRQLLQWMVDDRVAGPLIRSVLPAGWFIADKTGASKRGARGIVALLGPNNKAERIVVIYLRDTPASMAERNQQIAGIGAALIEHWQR
T3 sequence (P05364 21-381): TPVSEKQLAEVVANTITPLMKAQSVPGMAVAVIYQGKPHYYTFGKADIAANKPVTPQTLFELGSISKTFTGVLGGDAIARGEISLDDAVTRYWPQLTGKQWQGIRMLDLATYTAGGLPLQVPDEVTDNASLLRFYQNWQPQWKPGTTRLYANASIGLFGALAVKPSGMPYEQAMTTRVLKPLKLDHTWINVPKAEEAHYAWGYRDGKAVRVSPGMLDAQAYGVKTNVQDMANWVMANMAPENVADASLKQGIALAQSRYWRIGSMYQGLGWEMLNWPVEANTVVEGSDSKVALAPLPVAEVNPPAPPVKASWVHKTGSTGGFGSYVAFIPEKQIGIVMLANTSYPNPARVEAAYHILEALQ
T2 sequence (Q9F663 25-293, looked up): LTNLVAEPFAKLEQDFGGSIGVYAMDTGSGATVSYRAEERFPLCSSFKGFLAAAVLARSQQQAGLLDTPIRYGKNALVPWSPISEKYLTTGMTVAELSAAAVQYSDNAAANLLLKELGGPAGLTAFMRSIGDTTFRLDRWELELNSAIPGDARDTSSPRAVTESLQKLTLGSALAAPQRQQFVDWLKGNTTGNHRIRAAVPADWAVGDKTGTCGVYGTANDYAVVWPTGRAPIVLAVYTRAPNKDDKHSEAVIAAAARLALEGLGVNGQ

| Structure (SMILES) | MIC (μg/mL) of Exemplary Compounds in presence of fixed β-lactams: K. p. A-1797 KPC-2 VIM-4 [1] | IC50 (VIM-2) | MIC (μg/mL) of Exemplary Compounds in presence of fixed β-lactams: P. aerug. 2775 VIM-2 [2] | MIC (μg/mL) of Exemplary Compounds in presence of fixed β-lactams: K. p. 11978 OXA-48 [3] | IC50 (OXA-48) | MIC (μg/mL) of Exemplary Compounds in presence of fixed β-lactams: E. cl. 144200 p99 AmpC [4] | MIC (μg/mL) of Exemplary Compounds in presence of fixed β-lactams: K. p. 156319 KPC-3 [5] | MIC (μg/mL) of Exemplary Compounds in presence of fixed β-lactams: E. coli ESBL4 CTX-M-15 [6] | IC50 (KPC-2) | IC50 (AmpC) | IC50 (SHV-5) |
| --- | --- | --- | --- | --- | --- | --- | --- | --- | --- | --- | --- |
| Nc1cnn(CC(=O)N[C@H]2Cc3cccc(C(=O)O)c3OB2O)c1 [Example 58, (R)-3-(2-(4-amino-1H-pyrazol-1-yl)acetamido)-2-hydroxy-3,4-dihydro-2H-benzo[e][1,2]oxaborinine-8-carboxylic acid] | B (B represents an MIC between 1 and 16 μg/mL inclusive) | 0.1 to 1 µM | B (B represents an MIC between 1 and 16 μg/mL inclusive) | B (B represents an MIC between 1 and 16 μg/mL inclusive) | 0.1 to 1 µM | C (C represents an MIC of <1 μg/mL) | B (B represents an MIC between 1 and 16 μg/mL inclusive) | C (C represents an MIC of <1 μg/mL) | < 0.1 µM | < 0.1 µM | < 0.1 µM |
| NCc1cn(CCC(=O)N[C@H]2Cc3cccc(C(=O)O)c3OB2O)nn1 [Example 30, (R)-3-(3-(4-(aminomethyl)-1H-1,2,3-triazol-1-yl)propanamido)-2-hydroxy-3,4-dihydro-2H-benzo[e][1,2]oxaborinine-8-carboxylic acid] | B (B represents an MIC between 1 and 16 μg/mL inclusive) | 0.1 to 1 µM | B (B represents an MIC between 1 and 16 μg/mL inclusive) | B (B represents an MIC between 1 and 16 μg/mL inclusive) | 0.1 to 1 µM | C (C represents an MIC of <1 μg/mL) | C (C represents an MIC of <1 μg/mL) | C (C represents an MIC of <1 μg/mL) | < 0.1 µM | < 0.1 µM | < 0.1 µM |
| COc1c(C[C@H](NC(=O)Cn2cc(CN)nn2)B(O)O)cccc1C(=O)O [Example 31, (R)-3-(2-(2-(4-(aminomethyl)-1H-1,2,3-triazol-1-yl)acetamido)-2-boronoethyl)-2-methoxybenzoic acid] | B (B represents an MIC between 1 and 16 μg/mL inclusive) | 0.1 to 1 µM | C (C represents an MIC of <1 μg/mL) | A (A represents an MIC>16 μg/mL) | 1 to 10 µM | C (C represents an MIC of <1 μg/mL) | B (B represents an MIC between 1 and 16 μg/mL inclusive) | B (B represents an MIC between 1 and 16 μg/mL inclusive) | < 0.1 µM | 0.1 to 1 µM | < 0.1 µM |
| O=C(Cn1cc(CNCCO)nn1)N[C@H]1Cc2cccc(C(=O)O)c2OB1O [Example 21, (R)-2-hydroxy-3-(2-(4-(((2-hydroxyethyl)amino)methyl)-1H-1,2,3-triazol-1-yl)acetamido)-3,4-dihydro-2H-benzo[e][1,2]oxaborinine-8-carboxylic acid] | B (B represents an MIC between 1 and 16 μg/mL inclusive) | < 0.1 µM | B (B represents an MIC between 1 and 16 μg/mL inclusive) | B (B represents an MIC between 1 and 16 μg/mL inclusive) | 0.1 to 1 µM | C (C represents an MIC of <1 μg/mL) | B (B represents an MIC between 1 and 16 μg/mL inclusive) | C (C represents an MIC of <1 μg/mL) | < 0.1 µM | < 0.1 µM | < 0.1 µM |
